# Tested on: Neuro2a cells expressing 109QmHtt
# Assay: Cell growth curve of Neuro2a cells expressing 109QmHtt
# Type: cell-based, mouse
# Settings: 109QmHtt with or without 12.5 μM H2O2; vs 8R or scrambled control
# Method: FIG. 5. Therapeutic effect of 8R10Q and 8R15Q in 109QmHtt-expressing cells. Panel A: Cell viability assay by MTT in Neuro2a cells expressing 25QHtt (left) or 109QmHtt (right) treated with H2O2 at 50 μM and the indicated peptide. Panel B: Cell growth curve of Neuro2a cells expressing 25QHtt or 109QmHtt treated with indicated peptide. The cells in right subpanel were further treated with H2O2 at 12.5 μM 16 hours after transfection. 109QmHtt cells growth was slower than that of the 25QHtt cells. 8R10Q treatment rescued the slow growth of Neuro2a cells by 109QmHtt with or without H2O2. Panel C: Micrographs of the phase contrast and fluorescent images of retinoic acid-differentiated Neu2a cells expressing GFP-25QHtt or GFP-109QmHtt (GFP) treated with the indicated peptide. Note the neurites of the differentiated cells. Panel D: Quantitation of the percentage of differentiated cells with neurites. Fewer 109QmHtt-expressing cells had neurites vs. 25QHtt-expressing cells. […] The experiments were conducted in triplicate and repeated twice. Statistical analysis was performed with one way ANOVA, *p<0.05; **p<0.01; ***p<0.001, ns: not significant.
# The expression of 109QmHtt reduced the growth of Neuro2a cells, and so did the lower levels of H2O2 (12.5 μM) (FIG. 5, panel B).
substance,measurement,value
"H-RRRRRRRRWDQQQQQQQQQQ-NH2 [Peptide 8R10Q, NH2-(R)8-W-D-(Q)10-CONH2]",cell growth,ameliorated the reduction in growth
